Test results from patent publication US20090186865A1, “Lyophilization Process” (SANDOZ AG, priority 2005, published 2009).

Test: Stability studies of dissolved products versus temperature
Format: physicochemical
Settings: in aqueous solution

SMILES: C[C@]1(Cn2ccnn2)[C@H](C(=O)O)N2C(=O)C[C@H]2S1(=O)=O [Tazobactam]
- Inflexion point of degradation of dissolved product with temperature: around 15 °C

SMILES: CCN1CCN(C(=O)N[C@@H](C(=O)N[C@@H]2C(=O)N3[C@@H]2SC(C)(C)[C@@H]3C(=O)O)c2ccccc2)C(=O)C1=O [Piperacillin]
- Inflexion point of degradation of dissolved product with temperature: around 15 °C
